Values quoted from earlier work as cited in article PMC7931078 (Molecules, 2021).
Converted amounts (≈) assume the structure as drawn.

Test system: Mtb
Design: method as in PMID 29487031
Conditions: first line treatment regimen; cited from earlier work

**Q.** For `CC[C@@H](CO)NCCN[C@@H](CC)CO` [ethambutol], which MIC is on record?
**A.** Its MIC is 15 µM (≈ 3.06 µg/mL).
